# Reference: patent US20230116972A1, “CD38 MODULATORS AND METHODS OF USE THEREOF” (Cytokinetics, Inc., priority 2021, published 2023)
# Read-outs that look alike come from different tables or passages of the source.
# How the values were obtained:
# [1] = tested on: nicotinamide levels in mouse tissues; assay: tissue levels of nicotinamide in aged C57BL/6 mice after oral administration; assay type: in vivo; conditions: 100 mg/kg BID oral, 72-week-old male C57BL/6J mice, 4 h after the 3rd administration, vs vehicle, FIG. 1
# Protocol: 0.1% Tween 80/0.5% HPMC or compound 148 prepared with 0.1% Tween 80/0.5% HPMC was orally administered at 100 mg/kg BID to 72-week-old male C57BL/6J mice. 4 h after the 3rd administration, each mouse was euthanized, and tissues collected.
# Whole blood was collected and placed into pre-chilled K2EDTA microtainer tube, rotated 3-4 times to ensure anticoagulant mixing. An aliquot from the whole blood collection was added to 10 volumes of 0.5M PCA (perchloric acid), inverted 3-4 times to mix well, and then frozen on dry ice. While under isoflurane after cardiac puncture for blood collection, the following tissues were harvested in this order: heart, liver lobe, then by brain. All tissues were processed using pre-chilled freeze clamp. The frozen tissues were placed in pre-frozen labeled 2 mL Eppendorf tubes. The tissues were stored at −80° C. until processing. Upon processing, each tissue was cryomilled in the frozen state to form a powder. Frozen powdered tissue was weighed into pre-frozen tubes. Approximately 10 volumes of 0.5M PCA per weight of tissue were added to the tube followed by freezing until analysis. Upon analysis, blood and tissue samples were thawed on ice, followed by homogenization via TissueLyzer. Samples were centrifuged, the supernatant was collected and filtered, and the nicotinamide concentration in the supernatant of sample was measured using LC/MS.
# [2] = target: T1, CYP1A2 (Homo sapiens, UniProt P05177); assay: time dependent inhibition of CYP450 in pooled human microsomes; assay type: in vitro ADME
# T1 construct: from tissue; host or cells: human liver microsomes (pooled in the time-dependent assay)
# T1 sequence (P05177 1-516): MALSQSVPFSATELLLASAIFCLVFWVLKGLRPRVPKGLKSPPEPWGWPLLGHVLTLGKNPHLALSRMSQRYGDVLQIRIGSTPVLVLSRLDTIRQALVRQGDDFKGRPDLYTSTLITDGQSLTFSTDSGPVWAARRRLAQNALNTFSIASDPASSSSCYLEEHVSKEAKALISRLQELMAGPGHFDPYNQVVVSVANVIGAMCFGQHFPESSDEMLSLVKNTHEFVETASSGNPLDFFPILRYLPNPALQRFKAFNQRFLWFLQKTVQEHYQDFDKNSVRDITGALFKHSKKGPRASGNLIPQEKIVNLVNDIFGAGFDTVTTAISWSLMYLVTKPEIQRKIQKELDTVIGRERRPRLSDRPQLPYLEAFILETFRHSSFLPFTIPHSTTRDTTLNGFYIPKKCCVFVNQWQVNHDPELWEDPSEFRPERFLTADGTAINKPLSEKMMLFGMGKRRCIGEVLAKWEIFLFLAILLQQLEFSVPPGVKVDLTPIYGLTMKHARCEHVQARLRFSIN
# Protocol: (§1) Time dependent inhibition: An assessment of the time-dependent Inhibitory potential of test compounds against the principal human cytochrome P450 isozymes was carried out using standard methods (Grimm et al, “The Conduct of in Vitro Studies to Address Time-Dependent Inhibition of Drug-Metabolizing Enzymes: A Perspective of the Pharmaceutical Research and Manufacturers of America”, Drug Metabolism and Disposition, 37 (7): 1355, 2009). […] Each compound was pre-incubated at 37° C. plus and minus NADPH for 30 min, and with 0 min pre-incubation for assessment of potential time dependent inhibition. LC-MS/MS was used to quantify metabolite formation. […] Note that, in Tables 8 and 9, the “Compound No” corresponds to the compound numbers in Table 1.
# [3] = target: T2, CYP2B6 (Homo sapiens, UniProt P20813); assay: as above; assay type: in vitro ADME
# T2 construct: from tissue; host or cells: human liver microsomes (pooled in the time-dependent assay)
# T2 sequence (P20813 1-491): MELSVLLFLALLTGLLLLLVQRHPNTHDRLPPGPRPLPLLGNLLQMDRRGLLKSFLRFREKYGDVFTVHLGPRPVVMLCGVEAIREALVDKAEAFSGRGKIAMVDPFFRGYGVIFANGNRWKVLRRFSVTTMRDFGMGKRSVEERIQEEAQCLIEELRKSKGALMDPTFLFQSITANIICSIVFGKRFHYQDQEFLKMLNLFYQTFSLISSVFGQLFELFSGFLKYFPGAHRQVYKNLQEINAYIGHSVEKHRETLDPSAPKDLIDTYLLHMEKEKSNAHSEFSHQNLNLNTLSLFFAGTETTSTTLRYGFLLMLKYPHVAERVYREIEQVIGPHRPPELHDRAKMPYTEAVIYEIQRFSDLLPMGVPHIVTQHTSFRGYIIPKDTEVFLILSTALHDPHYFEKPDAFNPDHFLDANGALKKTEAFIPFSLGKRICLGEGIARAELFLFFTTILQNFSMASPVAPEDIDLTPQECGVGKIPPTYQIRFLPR
# Protocol: as §1
# [4] = target: T3, CYP2C19 (Homo sapiens, UniProt P33261); assay: as above; assay type: in vitro ADME
# T3 construct: from tissue; host or cells: human liver microsomes (pooled in the time-dependent assay)
# T3 sequence (P33261 whole entry): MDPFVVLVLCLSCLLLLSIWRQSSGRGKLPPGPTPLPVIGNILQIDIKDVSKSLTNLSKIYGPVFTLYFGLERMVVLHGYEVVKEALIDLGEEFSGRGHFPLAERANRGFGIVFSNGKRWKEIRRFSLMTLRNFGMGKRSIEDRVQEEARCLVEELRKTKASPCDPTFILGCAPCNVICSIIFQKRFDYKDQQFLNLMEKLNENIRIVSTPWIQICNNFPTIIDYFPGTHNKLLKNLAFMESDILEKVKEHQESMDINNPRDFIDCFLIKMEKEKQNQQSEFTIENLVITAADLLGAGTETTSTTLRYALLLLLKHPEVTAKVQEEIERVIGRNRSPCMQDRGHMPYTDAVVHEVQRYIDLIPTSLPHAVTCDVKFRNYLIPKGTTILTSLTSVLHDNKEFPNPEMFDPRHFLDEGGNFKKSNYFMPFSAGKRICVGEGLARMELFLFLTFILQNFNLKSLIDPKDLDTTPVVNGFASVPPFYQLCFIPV
# Protocol: as §1
# [5] = target: T4, CYP2C9 (Homo sapiens, UniProt P11712); assay: as above; assay type: in vitro ADME
# T4 construct: from tissue; host or cells: human liver microsomes (pooled in the time-dependent assay)
# T4 sequence (P11712 whole entry): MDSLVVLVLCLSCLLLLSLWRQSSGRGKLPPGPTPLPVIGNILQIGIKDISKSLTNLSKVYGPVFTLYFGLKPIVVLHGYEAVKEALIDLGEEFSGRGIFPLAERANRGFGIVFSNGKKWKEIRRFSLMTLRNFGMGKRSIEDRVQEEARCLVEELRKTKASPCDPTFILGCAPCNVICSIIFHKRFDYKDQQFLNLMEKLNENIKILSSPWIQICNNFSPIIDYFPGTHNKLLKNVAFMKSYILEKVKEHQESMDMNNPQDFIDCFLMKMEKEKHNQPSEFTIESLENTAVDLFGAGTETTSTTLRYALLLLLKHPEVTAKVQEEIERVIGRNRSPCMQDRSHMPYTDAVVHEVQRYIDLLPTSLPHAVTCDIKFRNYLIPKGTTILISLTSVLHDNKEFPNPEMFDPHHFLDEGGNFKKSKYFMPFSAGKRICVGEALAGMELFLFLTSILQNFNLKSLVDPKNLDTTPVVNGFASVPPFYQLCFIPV
# Protocol: as §1
# [6] = target: T5, CYP2D6 (Homo sapiens, UniProt P10635); assay: as above; assay type: in vitro ADME
# T5 construct: from tissue; host or cells: human liver microsomes (pooled in the time-dependent assay)
# T5 sequence (P10635 whole entry): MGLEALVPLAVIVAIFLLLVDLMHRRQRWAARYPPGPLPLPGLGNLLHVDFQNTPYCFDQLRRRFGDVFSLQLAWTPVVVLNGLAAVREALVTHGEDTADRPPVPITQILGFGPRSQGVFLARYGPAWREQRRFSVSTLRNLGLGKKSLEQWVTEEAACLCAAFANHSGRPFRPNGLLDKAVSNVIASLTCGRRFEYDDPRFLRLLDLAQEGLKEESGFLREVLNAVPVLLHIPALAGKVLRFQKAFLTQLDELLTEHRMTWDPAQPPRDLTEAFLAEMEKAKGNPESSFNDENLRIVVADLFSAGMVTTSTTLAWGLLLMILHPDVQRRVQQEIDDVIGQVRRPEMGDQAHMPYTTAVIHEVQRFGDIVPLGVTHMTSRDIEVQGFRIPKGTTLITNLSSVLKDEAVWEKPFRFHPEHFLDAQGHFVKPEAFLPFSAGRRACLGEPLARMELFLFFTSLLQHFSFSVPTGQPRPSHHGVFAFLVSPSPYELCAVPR
# Protocol: as §1
# [7] = target: T6, CYP3A4 (Homo sapiens, UniProt P08684); assay: as above; assay type: in vitro ADME
# T6 construct: from tissue; host or cells: human liver microsomes (pooled in the time-dependent assay)
# T6 sequence (P08684 whole entry): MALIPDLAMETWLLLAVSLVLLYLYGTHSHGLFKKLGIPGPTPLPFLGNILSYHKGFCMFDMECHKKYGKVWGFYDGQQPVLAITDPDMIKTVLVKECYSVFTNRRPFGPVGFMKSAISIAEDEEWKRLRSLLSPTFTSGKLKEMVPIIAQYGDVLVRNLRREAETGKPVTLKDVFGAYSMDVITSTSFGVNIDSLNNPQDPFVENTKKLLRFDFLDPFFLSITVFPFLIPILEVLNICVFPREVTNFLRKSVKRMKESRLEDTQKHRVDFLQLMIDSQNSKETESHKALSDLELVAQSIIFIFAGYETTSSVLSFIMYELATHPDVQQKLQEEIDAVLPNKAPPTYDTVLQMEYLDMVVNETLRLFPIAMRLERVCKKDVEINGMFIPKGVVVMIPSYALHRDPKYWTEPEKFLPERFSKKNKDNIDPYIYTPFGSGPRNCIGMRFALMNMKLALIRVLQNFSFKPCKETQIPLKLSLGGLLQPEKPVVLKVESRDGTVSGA
# Protocol: as §1
# [8] = between 30 min pre-incubation plus NADPH and 0 min
# [9] = pre-incubation 30 min (NO NADPH)
structure (smiles),measurement,setting,value
"CO[C@H]1CC[C@H](NC(=O)c2nccc(-c3cncn3C)n2)CC1 [Compound 148, N-((1r,4r)-4-methoxycyclohexyl)-4-(1-methyl-1H-imidazol-5-yl)pyrimidine-2-carboxamide]",nicotinamide levels in blood,[1]; blood,decreased
same,nicotinamide levels in brain,[1]; brain,decreased
same,nicotinamide levels in heart,[1]; heart,decreased
same,nicotinamide levels in liver,[1]; liver,decreased
same,IC50,"[2]; 0 min pre-incubation, pooled human microsomes, read-out: IC50 CYP1A2 (reversible inhibition)",10 µM
same,CYP1A2 IC50 fold shift,[2]; [8],0.8
same,IC50,"[2]; pre-incubation 30 min (NADPH), read-out: CYP1A2 IC50",11.8 µM
same,IC50,"[2]; pre-incubation 30 min (NO NADPH), read-out: CYP1A2 IC50",12 µM
same,IC50,"[3]; 0 min pre-incubation, pooled human microsomes, read-out: IC50 CYP2B6 (reversible inhibition)",26.2 µM
same,CYP2B6 IC50 fold shift,[3]; [8],none
same,IC50,"[3]; pre-incubation 30 min (NADPH), read-out: CYP2B6 IC50",> 30 µM
same,IC50,"[3]; pre-incubation 30 min (NO NADPH), read-out: CYP2B6 IC50",24.4 µM
same,CYP2C19 IC50 fold shift,[4]; [8],none
same,IC50,[4]; pre-incubation 0 min,> 30 µM
same,IC50,[4]; pre-incubation 30 min (NADPH),> 30 µM
same,IC50,[4]; [9],> 30 µM
same,CYP2C9 IC50 fold shift,[5]; [8],none
same,IC50,[5]; pre-incubation 0 min,> 30 µM
same,IC50,[5]; pre-incubation 30 min (NADPH),> 30 µM
same,IC50,[5]; [9],> 30 µM
same,IC50,"[6]; 0 min pre-incubation, pooled human microsomes, read-out: IC50 CYP2D6 (reversible inhibition)",13.7 µM
same,CYP2D6 IC50 fold shift,[6]; [8],1.1
same,IC50,"[6]; pre-incubation 30 min (NADPH), read-out: CYP2D6 IC50",12.3 µM
same,IC50,"[6]; pre-incubation 30 min (NO NADPH), read-out: CYP2D6 IC50",9.1 µM
same,CYP3A4-M IC50 fold shift,[7]; [8],none
same,CYP3A4-T IC50 fold shift,[7]; [8],none
same,IC50,"[7]; pre-incubation 0 min, read-out: CYP3A4-M IC50",> 30 µM
same,IC50,"[7]; pre-incubation 0 min, read-out: CYP3A4-T IC50",> 30 µM
same,IC50,"[7]; pre-incubation 30 min (NADPH), read-out: CYP3A4-M IC50",> 30 µM
same,IC50,"[7]; pre-incubation 30 min (NADPH), read-out: CYP3A4-T IC50",> 30 µM
same,IC50,"[7]; pre-incubation 30 min (NO NADPH), read-out: CYP3A4-M IC50",> 30 µM
same,IC50,"[7]; pre-incubation 30 min (NO NADPH), read-out: CYP3A4-T IC50",> 30 µM
